Assay results reported in publication PMC10291556 (Journal of Medicinal Chemistry, 2023).

Columns and labels:
Format in all cases: cell-based, human
HeLa cells = assay: Re-adhesion assay; settings: 10× IC50, 1 h
Procedure: Figure 7 (A–E) Wound healing assay. The monolayer of HeLa cells was scratched with a 10 μL tip, and a starving medium containing the tested complexes was added. The shots were taken at times 0 and 24 h. (A) Control, non-treated cells; (B) cells treated with complex 3; (C) cells treated with complex 4. […] (E) Evaluation of wound healing assay. Bars represent gap size vs. Control (100%), following a 24 h incubation with the investigated compounds. Light gray bars: complex 3; dark gray bars: complex 4; black bar: complex 2. (F) Re-adhesion assay. […] Following trypsinization, the cells were resuspended in Dulbecco’s modified Eagle medium (DMEM), counted, left to reconstitute adhesive membrane proteins for 30 min, and re-seeded at the density of 3× 10^4 cells/100 μL/well. After 30 min of incubation at 37 °C, the re-adhesion activity was determined as described in the Experimental Section. […]
HeLa cells were grown in 6-well plates for 24 h. […] Following the treatment, the cells were trypsinized, washed, and resuspended in fresh serum-free medium, counted, and left at room temperature for 30 min to allow surface receptor reconstitution. […] The number of adhered cells was determined with sulforhodamine B (SRB) assay. […] The bound SRB was dissolved in 10 mM Tris base (pH 10.5), and the absorbance was recorded at 570 nm with an Absorbance Reader (SUNRISE TECAN, SCHOELLER). […]

tubulin in HeLa cells = assay: Western blotting of tubulin; settings: 24 h, 0.25× or 0.5× IC50,72h, Western blot
Procedure: Figure 2 Western blotting analyses of tubulin in protein extract from HeLa cells treated with the investigated Pt complexes. (A) Representative membranes. […] Proteins from control, untreated cells were loaded to lane C. (B) Quantitative data evaluation; bars represent mean ± SD from two independent experiments.
HeLa cells were seeded in 60 mm dishes at a density of 3 × 10^5 cells/dish and cultured for 20 h. The cells were then treated with the tested compounds at concentrations indicated in the text. After 24 h of treatment, the cells were scraped, washed, and pelleted. […] After transferring to the polyvinylidene fluoride membrane, the proteins were detected using appropriate antibodies: anti-GAPDH antibody (mouse, Sigma-Aldrich), Anti-COX-2 (rabbit, Abcam), Anti-α-, β-, or γ-tubulin (all rabbit, Abcam), Anti-β-actin (mouse, Abcam), Goat Anti-Rabbit IgG(HRP) (Abcam; HRP = horseradish peroxidase), and Goat Anti-Mouse IgG(HRP) (ThermoFisher Scientific). SignalFire ECL Reagent (A + B) was used as a substrate for HRP, and the luminescence was recorded with Amersham Imager 680. The densities in the images were assessed with the Aida image analysis software.

COX-2 in HeLa cells = assay: Western blotting of COX-2; settings: 24 h, 1×, 3× IC50, Western blot
Procedure: (B) Quantitative evaluation of Western blotting data; the relative expression of COX-2 normalized to GAPDH. Data represents the mean ± SD of two experiments. The stars indicate the statistical significance of difference vs control determined with the Student t-test (*p < 0.05, **p < 0.01, ***p < 0.001).
HeLa cells were seeded in 60 mm dishes at a density of 3 × 10^5 cells/dish and cultured for 20 h. The cells were then treated with the tested compounds at concentrations indicated in the text. After 24 h of treatment, the cells were scraped, washed, and pelleted. […] 4–20% SDS-PAGE (sodium dodecyl sulfate-polyacrylamide gel electrophoresis) (Mini-PROTEAN TGX Precast Gel) was used to resolve the proteins. After transferring to the polyvinylidene fluoride membrane, the proteins were detected using appropriate antibodies: anti-GAPDH antibody (mouse, Sigma-Aldrich), Anti-COX-2 (rabbit, Abcam), Anti-α-, β-, or γ-tubulin (all rabbit, Abcam), Anti-β-actin (mouse, Abcam), Goat Anti-Rabbit IgG(HRP) (Abcam; HRP = horseradish peroxidase), and Goat Anti-Mouse IgG(HRP) (ThermoFisher Scientific). SignalFire ECL Reagent (A + B) was used as a substrate for HRP, and the luminescence was recorded with Amersham Imager 680. The densities in the images were assessed with the Aida image analysis software.

A2780 = assay: MTT antiproliferative assay, 72 h; settings: MTT, 72 h incubation, mean ± SD; read-out: IC50 A2780
Procedure: (§1) Cells were treated with the tested compounds in a final volume of 200 μL/well. […] Calbiochem, Darmstadt, Germany) was added, and the cells were incubated for an additional 2–4 h. The medium was removed, and the insoluble formazan product was dissolved in 100 μL/well DMSO. The absorbance was read at 570 nm (vs 620 nm) using an Absorbance Reader (SUNRISE TECAN SCHOELLER). The read values were converted to the percentage of control. […] All experiments were made in triplicate.

HCT-116 = assay: MTT antiproliferative assay, 72 h; settings: MTT, 72 h incubation, mean ± SD; read-out: IC50 HCT-116
Procedure: as §1

MDA-MB-231 = assay: MTT antiproliferative assay, 72 h; settings: MTT, 72 h incubation, mean ± SD; read-out: IC50 MDA-MB-231
Procedure: as §1

HeLa = assay: MTT antiproliferative assay, 72 h; settings: for increase of antiproliferative activity relative to Pt(IV) complex 2: IC50, Table 1; for IC50: MTT, 72 h incubation, mean ± SD, read-out: IC50 HeLa
Procedure: as §1

A2780cisR = assay: MTT antiproliferative assay, 72 h; settings: MTT, 72 h incubation, mean ± SD; read-out: IC50 A2780cisR
Procedure: as §1

MCF-7 = assay: MTT antiproliferative assay, 72 h; settings: MTT, 72 h incubation, mean ± SD; read-out: IC50 MCF-7
Procedure: as §1

Row | SMILES | re-adhesion to the growth surface (HeLa cells) | reduction of the amount of tubulin in cell extracts (tubulin in HeLa cells) | intracellular level of COX-2 protein (COX-2 in HeLa cells) | IC50 (A2780) [nM] | IC50 (HCT-116) [nM] | IC50 (MDA-MB-231) [nM] | increase of antiproliferative activity relative to Pt(IV) complex 2 (HeLa) [fold] | IC50 (HeLa) [nM] | IC50 (A2780cisR) [nM] | IC50 (MCF-7) [nM]
1 | Cc1c(C)c2c3c4c1=CC=C[N]4[Pt]([Cl])[N]3C=CC=2.NCCNC(=O)Cc1ccccc1Nc1c(Cl)cccc1Cl.N[C@H]1CCCC[C@@H]1N [complex 3, Pt(IV)56MESSenDCFCl] | lower the ability of HeLa cells to re-adhere to the growth surface | higher potency of the two complexes to reduce the amount of tubulin | able to reduce the intracellular level of COX-2 protein | 120 ± 20 | 200 ± 30 | 400 ± 100 | 4.5 | 600 ± 100 | 130 ± 20 | 400 ± 100
2 | Cc1c(C)c2c3c4c1=CC=C[N]4[Pt][N]3C=CC=2.NCCNC(=O)Cc1ccccc1Nc1c(Cl)cccc1Cl.NCCNC(=O)Cc1ccccc1Nc1c(Cl)cccc1Cl.N[C@H]1CCCC[C@@H]1N [complex 4, Pt^IV56MeSS(DCF)2] | lower the ability of HeLa cells to re-adhere to the growth surface | higher potency of the two complexes to reduce the amount of tubulin | able to reduce the intracellular level of COX-2 protein | 50 ± 10 | 180 ± 50 | 290 ± 40 | 9 | 310 ± 80 | 80 ± 20 | 330 ± 50
